Source: ChEMBL document CHEMBL1811900, “Sesquiterpene glycosides from Cosmospora joca” (J Nat Prod, 2011)
Activity calls are given as the source filed them. No cut-off for these calls is given here.

Columns and labels:
RAW264.7 [1] = assay: Antiinflammatory activity in mouse RAW264.7 cells assessed as inhibition of LPS-stimulated NO production at 100 uM after 24 hrs by spectrophotometry; type: functional
RAW264.7 [2] = assay: Cytotoxicity against mouse RAW264.7 cells by Alamar blue assay; type: cell-based
RAW264.7 [3] = assay: Antiinflammatory activity in mouse RAW264.7 cells assessed as inhibition of LPS-stimulated NO production at 0.1 to 100 uM after 24 hrs by spectrophotometry; type: functional, cell-based

SMILES | Imax (RAW264.7 [1]) | inhibition (RAW264.7 [1]) | also measured
CC(C)=CCC/C(C)=C/CC/C(C)=C/CO[C@@H]([C@H](O)[C@H](O)CO)[C@H](O)CO [COSMOSPORASIDE A] | 54.52% |  | Activity (RAW264.7 [2]): Toxic
CCCCCCCCCC(=O)O[C@@H]1[C@H](O[C@@H](C[C@H](OC(C)=O)/C(C)=C/CO[C@@H]([C@H](O)[C@H](O)CO)[C@H](O)CO)[C@](C)(O)CCC=C(C)C)O[C@H](CO)[C@@H](O)[C@@H]1O [COSMOSPORASIDE D] | 71.7% |  | inhibition (RAW264.7 [3]): Dose-dependent effect; IC50 (RAW264.7 [3]; RAW264.7, 24 h): 66 µM
CC(=O)OC(CC(=O)C(C)CCC=C(C)C)/C(C)=C/CO[C@@H]([C@H](O)[C@H](O)CO)[C@H](O)CO (stereo partly drawn) |  | Active | 
CC(=O)O[C@@H](C[C@H](O[C@@H]1O[C@H](CO)[C@@H](O)[C@H](O)[C@@H]1O)[C@](C)(O)CCC=C(C)C)/C(C)=C/CO[C@@H]([C@H](O)[C@H](O)CO)[C@H](O)COCC=C(C)C |  | inactive | 
CCCCC/C=C\CCC(=O)O[C@@H]1[C@H](O[C@@H](C[C@H](OC(C)=O)/C(C)=C/CO[C@@H]([C@H](O)[C@H](O)CO)[C@H](O)CO)[C@](C)(O)CCC=C(C)C)O[C@H](CO)[C@@H](O)[C@@H]1O |  | Active | 
